Laboratory results published in US20240350494A1, “THERAPEUTIC MODULATION OF INTEGRINS” (Pliant Therapeutics, Inc., priority 2021, published 2024).

Experiments:
[1] = tested on: Type I Collagen gene Col1a1 expression; assay: Precision cut lung slices, acute bleomycin exposure, Col1a1 expression; format: cell-based, mice (C57BL/6); details: for Type I Collagen gene Col1a1 expression, normalized to DMSO control slices: 3 days culture, integrin inhibitors at IC50 for TGF-beta activation, pan-αV and ALK5 inhibitors at 10× reported IC50, FIG. 3A
Procedure: Mice (C57BL/6) were administered 3 U/kg of bleomycin (Teva Pharmaceuticals; North Wales, PA) on day 0 via oropharyngeal aspiration while under anesthesia. On day 14, precision cut lung slices were obtained. Following euthanization, 2% low gelling temp agarose was injected into the mouse lungs via the trachea. […] The lobes were then subjected to precision slicing to obtain samples for culture using a microtome (Compresstome VF-300-OZ, Precisionary; Greenville, NC). Individual slices were distributed in a multiwell culture plate and cultured for 3 days under control (DMSO) and test compound conditions.

[2] = tested on: lung Col1a1 expression; assay: Precision cut lung slices, chronic bleomycin exposure, Col1a1 expression; format: cell-based, mice (C57BL/6); details: 7 days culture, ALK5 inhibitor at 10× IC50; for lung slice Col1a1 expression compared to DMSO vehicle control slices: nintedanib and pirfenidone at 10× therapeutic concentrations, FIG. 4A
Procedure: (§1) Mice (C57BL/6) were administered 3 U/kg of bleomycin (Teva Pharmaceuticals; North Wales, PA) on Day 0 and 1 U/kg of bleomycin on days 14, 28, 42 and 56 via oropharyngeal aspiration while under anesthesia. At day 70, 14 days after the final bleomycin insult, precision cut lung slices were obtained. Following euthanization, 2% low gelling temp agarose was injected into the mouse lungs via the trachea. […] The lobes were then subjected to precision slicing to obtain samples for culture using a microtome (Compresstome VF-300-OZ, Precisionary; Greenville, NC). Individual slices were distributed in a multiwell culture plate and cultured for 7 days under control (DMSO) and test compound conditions. The viability of the slices over the course of culturing was confirmed by WST-1 assay of mitochondrial activity.
During the culture period, slices in the control group were treated with DMSO and slices in the test group were treated with a DMSO solution of one of: the selective antibody αVβ6 inhibitor 3G9; the αVβ1-selective small molecule inhibitor; a combination of the selective antibody αVβ6 inhibitor 3G9 and the αVβ1-selective small molecule inhibitor; compound 5; and the small molecule ALK5 inhibitor. The selective αVβ1 and αVβ6 integrin inhibitors were analyzed at ≥their respective IC90 concentrations for inhibition of TGF-beta activation. Compound 5 was run at approximate IC50 for inhibition of TGF-beta activation by αVβ6.
as §1, with “following” for “after”
During the culture period, slices in the control group were treated with DMSO and slices in the test group were treated with a DMSO solution of one of: compound 5; nintedanib; pirfenidone; a combination of nintedanib and compound 5; a combination of pirfenidone and compound 5; or the small molecule ALK5 inhibitor. Compound 5 was […] effective to equal or exceed its respective IC50 values at αVβ6 and αVβ1. […] Nintendanib and pirfenidone were analyzed at concentrations 10× their reported therapeutic concentrations.

[3] = tested on: COL1A1 expression; assay: Precision cut lung slices from human IPF explants, COL1A1 expression; format: cell-based; details: for COL1A1 expression, treatment alone: PCLS from 5-7 IPF samples, seven days, nintedanib 75 nM, pirfenidone 50 μm
From the text: Explanted lung tissue was obtained from human IPF subjects and inflated with agarose as described in the preceding examples. Biopsy cores were obtained from the agarose-inflated lung tissue. The biopsy cores were subjected to precision slicing to obtain several hundred μm thick. Individual slices were distributed in a multiwell culture plate and cultured for […] under control (DMSO) and test compound conditions. The viability of the slices over the course of culturing was confirmed by WST-1 assay of mitochondrial activity.
PCLS from 5-7 idopathic pulmonary fibrosis (IPF) lung tissue samples were cultured for seven days with one of: DMSO; Compound 5 at 200 nM; nintedanib at 75 nM; pirfenidone at 50 μm; a combination of Compound 5 at 200 nM and nintedanib at 75 nM; a combination of Compound 5 at 200 nM and pirfenidone at 50 μm; or an Alk5 inhibitor at 1 μm. […] FIG. 4D is a bar graph showing relative expression of COL1A1 in precision cut lung slices (PCLS) from idopathic pulmonary fibrosis (IPF) lung tissue upon exposure to Compound 5, clinical standard of care compounds nintedanib (Nin) and pirfenidone (Pirf), and an ALK5 inhibitor, all versus DMSO control.
PCLS from a single IPF lung tissue sample were cultured for seven days with Compound 5 at concentrations of 200 μM, 2 nM, 60 nM, 200 nM, and 1 μM, along with 0.1% DMSO control and an Alk5 inhibitor at 1 μM. […] COL1A1 expression is also graphed for the PCLS in the presence of 0.1% DMSO control, and an Alk5 inhibitor at 1 μM.

| Compound | Type I Collagen gene Col1a1 expression, normalized to DMSO control slices [1] | lung Col1a1 expression, normalized to DMSO control slices ([2]; Compound 5 at approximate IC50 (αVβ6), selective inhibitors at ≥IC90, FIG. 3B) | lung slice Col1a1 expression compared to DMSO vehicle control slices [2] | lung Col1a1 expression, normalized to DMSO control slices ([3]; human IPF slices, 3 days, 3G9 ≥400 ng/mL, compound 5 179 nM, ALK5 inhibitor 1 μM, FIG. 4C) | increase in concentration over compound 5 needed to reduce lung slice Col1a1 expression by 50% ([1]; acute bleomycin injured lung slices, FIG. 4B) [fold] | COL1A1 expression, treatment alone [3] |
| --- | --- | --- | --- | --- | --- | --- |
| CC(C)(C)c1cc(Br)cc([C@H](CC(=O)O)NC(=O)CNC(=O)c2cc(O)cc(NC3=NCC(O)CN3)c2)c1 (stereo partly drawn) [second pan-αV small molecule inhibitor, (3S)—N-[3-hydroxy-5-[(1,4,5,6-tetrahydro-5-hydroxy-2-pyrimidinyl)amino]benzoyl]glycyl-3-[3-bromo-5-(1,1-dimethylethyl)phenyl]-β-alanine] | decreased Type I Collagen gene Col1a1 expression comparably | – | – | – | – | – |
| Cc1cccc(-c2n[nH]cc2-c2ccc(F)c(-c3cnn(CCO)c3)c2)n1 [small molecule ALK5 inhibitor, 4-[2-Fluoro-5-[3-(6-methyl-2-pyridinyl)-1H-pyrazol-4-yl]phenyl]-1H-pyrazole-1-ethanol] | greatest decrease | greatest decrease | substantial, statistically significant (p<0.0001 vs vehicle) decrease | substantial, statistically significant | – | – |
| COC(=O)c1ccc2c(c1)NC(=O)/C2=C(\Nc1ccc(N(C)C(=O)CN2CCN(C)CC2)cc1)c1ccccc1 [nintedanib] | – | – | slight increase | – | 5.2 | did not significantly reduce |
| Cc1ccc(=O)n(-c2ccccc2)c1 [pirfenidone] | – | – | slight increase | – | – | did not significantly reduce |
